Active and inactive are the calls of the source. The calls are words filed in the database; no cut-off is given here.
Assays:
[1] = Toxicity in Kunming mouse assessed as effect on spleen at 5 to 500 mg/kg, ip administered as single dose by macroscopic autopsy analysis; format: organism-based; conditions: in vivo, dose 5-500 mg/kg
[2] = Toxicity in ip dosed Kunming mouse administered as single dose; format: organism-based; conditions: in vivo
[3] = tested on: HL-60; assay: Induction of apoptosis in human HL-60 cells assessed as decrease in Bcl2 protein expression at 1 to 10 uM incubated for 24 hrs by western blot analysis; format: functional, cell-based; conditions: dose 1-10 µM
[4] = tested on: SW480; assay: Antiproliferative activity against human SW480 cells assessed as reduction in cell viability incubated for 48 hrs by MTT assay; format: functional, cell-based; conditions: SW480, 48 h
[5] = tested on: HL-60; assay: Induction of apoptosis in human HL-60 cells assessed as increase in caspase-3 cleavage incubated for 24 hrs by western blot analysis; format: functional, cell-based; conditions: dose 1-10 µM
[6] = tested on: A549; assay: Antiproliferative activity against human A549 cells assessed as reduction in cell viability incubated for 48 hrs by MTT assay; format: functional, cell-based; conditions: A549, 48 h
[7] = tested on: HL-60; assay: Induction of apoptosis in human HL-60 cells assessed as early apoptotic cells at 5 uM by AnnexinV-FITC/PI staining based flow cytometry (reference value: 1.33%); format: functional
[8] = tested on: H22; assay: Antitumor activity against mouse H22 cells xenografted in Kunming mouse assessed as reduction in tumor weight at 100 mg/kg, ip administered for 14 days; format: functional; conditions: H22, 336 h, time 14 day
[9] = Toxicity in Kunming mouse assessed as effect on lung at 5 to 500 mg/kg, ip administered as single dose by macroscopic autopsy analysis; format: organism-based; conditions: in vivo, dose 5-500 mg/kg
[10] = tested on: HL-60; assay: Antiproliferative activity against human HL-60 cells assessed as reduction in cell viability incubated for 48 hrs by MTT assay; format: functional, cell-based; conditions: HL-60, 48 h
[11] = Toxicity in Kunming mouse assessed as effect on liver at 5 to 500 mg/kg, ip administered as single dose by macroscopic autopsy analysis; format: organism-based; conditions: in vivo, dose 5-500 mg/kg
[12] = tested on: MCF7; assay: Antiproliferative activity against human MCF7 cells assessed as reduction in cell viability incubated for 48 hrs by MTT assay; format: functional, cell-based; conditions: MCF7, 48 h
[13] = Toxicity in Kunming mouse assessed as effect on sign of illness at 500 mg/kg, ip administered as single dose; format: organism-based; conditions: in vivo
[14] = molecular target: T1, Heat shock protein HSP90 (Homo sapiens) (UniProt P07900+P08238); assay: Inhibition of HSP90 in human HL-60 cells assessed as increase in HSP27 protein expression incubated for 24 hrs by western blot analysis; format: cell-based; conditions: dose 1-10 µM
[15] = tested on: HL-60; assay: Induction of apoptosis in human HL-60 cells assessed as increase in PARP cleavage incubated for 24 hrs by western blot analysis; format: functional, cell-based; conditions: dose 1-10 µM
[16] = tested on: HL-60; assay: Induction of apoptosis in human HL-60 cells assessed as early apoptotic cells at 20 uM by AnnexinV-FITC/PI staining based flow cytometry (reference value: 1.33%); format: functional
[17] = Solubility of the compound in aqueous NMR buffer; format: physicochemical
[18] = Toxicity in Kunming mouse assessed as effect on physical appearance at 500 mg/kg, ip administered as single dose; format: organism-based; conditions: in vivo
[19] = Inhibition of HSP90 in rabbit reticulocyte lysates incubated for 3 hrs by denatured luciferase refolding assay; format: subcellular, Oryctolagus cuniculus
[20] = tested on: HL-60; assay: Induction of apoptosis in human HL-60 cells assessed as late apoptotic cells at 10 uM by AnnexinV-FITC/PI staining based flow cytometry (reference value: 8.57%); format: functional
[21] = Toxicity in Kunming mouse xenografted with mouse H22 cells assessed as body weight loss at 100 mg/kg, ip administered for 14 days; format: organism-based; conditions: in vivo, 336 h, time 14 day
[22] = Toxicity in Kunming mouse assessed as effect on feeding habits at 500 mg/kg, ip administered as single dose; format: organism-based; conditions: in vivo
[23] = tested on: HL-60; assay: Induction of apoptosis in human HL-60 cells assessed as early apoptotic cells at 10 uM by AnnexinV-FITC/PI staining based flow cytometry (reference value: 1.33%); format: functional
[24] = tested on: HL-60; assay: Induction of apoptosis in human HL-60 cells assessed as increase in Bax protein expression at 1 to 10 uM incubated for 24 hrs by western blot analysis; format: functional, cell-based; conditions: dose 1-10 µM
[25] = Toxicity in Kunming mouse assessed as normal animal behaviour at 500 mg/kg, ip administered as single dose; format: organism-based; conditions: in vivo
[26] = molecular target: T1, Heat shock protein HSP90 (Homo sapiens); assay: Inhibition of HSP90 in human HL-60 cells assessed as decrease in CDK4 protein expression incubated for 24 hrs by western blot analysis; format: cell-based; conditions: dose 1-10 µM
[27] = tested on: HL-60; assay: Induction of apoptosis in human HL-60 cells assessed as late apoptotic cells at 20 uM by AnnexinV-FITC/PI staining based flow cytometry (reference value: 8.57%); format: functional
[28] = tested on: Reticulocyte; assay: Inhibition of HSP90 in rabbit reticulocyte lysates at 10 uM incubated for 3 hrs by denatured luciferase refolding assay; format: subcellular; conditions: Oryctolagus cuniculus
[29] = tested on: HL-60; assay: Induction of apoptosis in human HL-60 cells assessed as viable cells at 1 uM by AnnexinV-FITC/PI staining based flow cytometry (reference value: 89.7%); format: functional; conditions: read-out: Activity
[30] = tested on: HL-60; assay: Induction of apoptosis in human HL-60 cells assessed as viable cells at 20 uM by AnnexinV-FITC/PI staining based flow cytometry (reference value: 89.7%); format: functional; conditions: read-out: Activity
[31] = Toxicity in Kunming mouse assessed as pain at 500 mg/kg, ip administered as single dose; format: organism-based; conditions: in vivo
[32] = tested on: HL-60; assay: Induction of apoptosis in human HL-60 cells assessed as necrotic cells at 5 uM by AnnexinV-FITC/PI staining based flow cytometry (reference value: 0.4%); format: functional
[33] = tested on: HL-60; assay: Induction of apoptosis in human HL-60 cells assessed as viable cells at 10 uM by AnnexinV-FITC/PI staining based flow cytometry (reference value: 89.7%); format: functional; conditions: read-out: Activity
[34] = Toxicity in Kunming mouse assessed as effect on kidney at 5 to 500 mg/kg, ip administered as single dose by macroscopic autopsy analysis; format: organism-based; conditions: in vivo, dose 5-500 mg/kg
[35] = tested on: HL-60; assay: Induction of apoptosis in human HL-60 cells assessed as necrotic cells at 1 uM by AnnexinV-FITC/PI staining based flow cytometry (reference value: 0.4%); format: functional
[36] = tested on: SMMC-7721; assay: Antiproliferative activity against human SMMC-7721 cells assessed as reduction in cell viability incubated for 48 hrs by MTT assay; format: functional, cell-based; conditions: SMMC-7721, 48 h
[37] = tested on: HL-60; assay: Induction of apoptosis in human HL-60 cells assessed as necrotic cells at 10 uM by AnnexinV-FITC/PI staining based flow cytometry (reference value: 0.4%); format: functional
[38] = tested on: HL-60; assay: Induction of apoptosis in human HL-60 cells assessed as late apoptotic cells at 1 uM by AnnexinV-FITC/PI staining based flow cytometry (reference value: 8.57%); format: functional
[39] = tested on: HL-60; assay: Induction of apoptosis in human HL-60 cells assessed as necrotic cells at 20 uM by AnnexinV-FITC/PI staining based flow cytometry (reference value: 0.4%); format: functional
[40] = Toxicity in Kunming mouse assessed as effect on heart at 5 to 500 mg/kg, ip administered as single dose by macroscopic autopsy analysis; format: organism-based; conditions: in vivo, dose 5-500 mg/kg
[41] = tested on: HL-60; assay: Induction of apoptosis in human HL-60 cells assessed as viable cells at 5 uM by AnnexinV-FITC/PI staining based flow cytometry (reference value: 89.7%); format: functional; conditions: read-out: Activity
[42] = tested on: HL-60; assay: Induction of apoptosis in human HL-60 cells assessed as early apoptotic cells at 1 uM by AnnexinV-FITC/PI staining based flow cytometry (reference value: 1.33%); format: functional
[43] = tested on: H22; assay: Antitumor activity against mouse H22 cells xenografted in Kunming mouse assessed as reduction in tumor volume at 100 mg/kg, ip administered for 14 days; format: functional; conditions: H22, 336 h, time 14 day
[44] = tested on: HL-60; assay: Induction of apoptosis in human HL-60 cells assessed as late apoptotic cells at 5 uM by AnnexinV-FITC/PI staining based flow cytometry (reference value: 8.57%); format: functional
[45] = Toxicity in Kunming mouse assessed as injury at 500 mg/kg, ip administered as single dose; format: organism-based; conditions: in vivo

For `CC(C)=CCC[C@@]1(C)CC=C(CF)c2oc(C)cc2[C@@H]1/C=C/OC(=O)C=C(C)C`, the Activity [1] was “Non-Toxic”, the LD50 [2] was greater than 500 mg/kg and the Activity [3] was “Active”. The IC50 [4] was 20 µM, the Activity [5] was “Dose-Dependent Effect” and the IC50 [6] was greater than 40 µM. The Activity [7] was 2.87%, the inhibition in vivo at 100 mg/kg [8] was 42.4% and the Activity [9] was “Non-Toxic”. The IC50 [10] was 3.69 µM, the Activity [11] was “Non-Toxic” and the IC50 [12] was 17.7 µM. For the same compound, the Activity [13] was “Non-Toxic”, the inhibition [14] was “Dose-Dependent Effect” and the Activity [15] was “Dose-Dependent Effect”. The Activity [16] was 3.78%, the solubility [17] was “Insoluble” and the Activity [18] was “Non-Toxic”. For the same compound, the IC50 [19] was 390 nM, the Activity [20] was 50.4% and the Activity [21] was “Non-Toxic”. The Activity [22] was “Non-Toxic”, the Activity [23] was 4.98% and the Activity [24] was “Active”. For the same compound, the Activity [25] was “Non-Toxic”, the inhibition [26] was “Dose-Dependent Effect” and the Activity [27] was 73.3%. It also gave an inhibition [28] of 72.2%, a viability at 1 µM [29] of 87.1% and a viability at 20 µM [30] of 19.5%. For the same compound, the Activity [31] was “Non-Toxic”, the Activity [32] was 0.22% and the viability at 10 µM [33] was 38.4%. For the same compound, the Activity [34] was “Non-Toxic”, the Activity [35] was 0.27% and the IC50 [36] was 11.9 µM. The Activity [37] was 6.29%, the Activity [38] was 11% and the Activity [39] was 3.45%. For the same compound, the Activity [40] was “Non-Toxic”, the viability at 5 µM [41] was 83% and the Activity [42] was 1.57%. The inhibition in vivo at 100 mg/kg [43] was 48.4%, the Activity [44] was 12.8% and the Activity [45] was “Non-Toxic”.
